# According to patent US6284910A, “Farnesyl pyrophosphate analogs” (University of Kentucky Research Foundation, priority 1999, dated 2001):
# Entries after “also recorded” stand apart in the source; their conditions may differ.
# Key:
# [1] = molecular target: T1, recombinant rat brain FTase (Rattus norvegicus, UniProt Q02293+Q04631); assay: Inhibition of FTase-catalyzed transfer of [^3 H]farnesyl from [^3 H]FPP to H-Ras; type: biochemical
# T1 construct: 6xHis (N); made in house; host or cells: Sf9 insect cells (baculovirus)
# Description: FIG. 2. Differential Inhibition of Farnesyltransferase and CAAX Geranylgeranyltransferase by AGPP. The assay mixtures contained (in a final volume of 25 μl) various components as described in "Experimental Procedures". After incubation for 15 min at 37° C., the amount of [^3 H]prenyl group transferred to the appropriate protein substrate [H-Ras (CVLS) for FTase and H-Ras (CVLL) for CAAX GGTase] was measured by precipitation with ethanol-HCl. The assays contained 10 ng recombinant rat FTase, 5 μM H-Ras, and 0.6 μM [^3 H]FPP (33,000 dpm/pmol) or 100 ng recombinant rat CAAX GGTase, 5 μM H-Ras CVLL, and 1 μM [^3 H]GGPP (33,000 dpm/pmol) and the indicated concentration of unlabeled AGPP. The 100% of control values were 1.1 and 5.5 pmol of [^3 H]farnesyl or [^3 H]geranylgeranyl transferred per tube. Each value is the average of duplicate incubations and is representative of two separate experiments.
# FIG. 3. Inhibition of Farnesyltransferase by AGPP and I-AGPP. The enzymatic activity was measured in the presence of the various concentrations of either AGPP or I-AGPP as described in […]. The 100% control values were 1.9 and 2 pmol. Each value is the average of duplicate incubations and is representative of three separate experiments.
# (§1) Assay for Farnesyltransferase Activity--Farnesyltransferase activity was assayed by measuring the amount of [^3 H]farnesyl or [^3 H]anilinogeranyl transferred from [^3 H]FPP or [^3 H]AGPP to recombinant p21^H-ras, as described previously (31). Unless otherwise stated, each reaction mixture contained the following components in a final volume of 25 μl: 50 mM Tris (pH 7.4), 20 mM KCl, 0.2% octyl β-glucopyranoside, 1 mM dithiothreitol, 10-20 ng recombinant FTase, 5 μM p21^Ha-ras, 3 mM MgCl2, 50 μM ZnCl2, and 0.6 μM [^3 H]FPP (33,000 dpm/pmol; American Radiochemical Co.) or 0.1-5 μM [^3 H]AGPP (37,400 dpm/pmol). Following incubation for the indicated times at 37° C., the amount of [^3 H]prenyl transferred was measured by ethanol-HCl precipitation and filtration on glass fiber filters with modification as previously described (19). A blank value was determined in parallel incubation mixtures containing no enzyme. This blank value was subtracted from each reaction before calculating pmol [^3 H]prenyl transferred.
# Inhibition of Farnesyltransferase by AGPP--AGPP was tested for its ability to inhibit recombinant rat brain FTase activity in vitro. AGPP inhibited FTase in a concentration dependent manner with an IC50 value of 0.6 μM (FIG. 2).
# Kinetic analyses were carried out to investigate the mechanism of FTase inhibition by AGPP. […] The same Km value was observed when the Lineweaver-Burke plot was analyzed under different Ras and AGPP concentrations in the presence of a constant concentration of FPP. […] AGPP inhibition is reversible, since transfer of [^3 H]-FPP by FTase to Ras was restored by isolating the farnesyltransferase by gel filtration chromatography after preincubation in the presence of 50 μM AGPP (data not shown).
# The assays contained 10 ng recombinant rat FTase, 5 μM H-Ras, and 0.6 μM [^3 H]FPP (33,000 dpm/pmol) or 100 ng recombinant rat CAAX GGTase, 5 μM H-Ras CVLL, and 1 μM [^3 H]GGPP (33,000 dpm/pmol) and the indicated concentration of unlabeled AGPP. The 100% of control values were 1.1 and 5.5 pmol of [^3 H]farnesyl or [^3 H]geranylgeranyl transferred per tube.
# [2] = molecular target: FTase (Rattus norvegicus, UniProt Q02293+Q04631); assay: FTase-catalyzed transfer of labeled FPP analogs to p21^H-ras (substrate assay); type: biochemical; set-up: H-Ras is only the protein substrate; conditions: for transfer to p21^H-ras by FTase, in words: in vitro
# Description: FIG. 4. Transfer of Anilinogeranyl from [^3 H]AGPP to p21^Ha-ras by Farnesyltransferase. (A) Each reaction contained 1 μM [^3 H]AGPP (37,400 dpm/pmol) and 10 ng of recombinant FTase in the absence (triangles) or presence (circles) of 5 μM p21^Ha-ras Duplicate samples were incubated for the indicated times at 37° C., and ethanol-HCl precipitated radioactivity was measures as described under "Experimental Procedures". […] The gel was treated with Amplify solution (Amersham), dried, and exposed to Kodak X-OMAT AR film for 2 days at -70° C. The migration of molecular weight markers placed in a adjacent lane is shown. (B) The AGPP substrate saturation curve for FTase was determined by varying the amount of [^3 H]AGPP in the standard reaction described above. Assays were carried out in duplicate for 30 min at 37° C., and the ethanol-HCl precipitable radioactivity measured. The data is representative of three independent experiments.
# FIG. 5. […] Farnesyltransferase (10 ng) was incubated in a final volume of 25 μl in the presence of 1.0 μM [^3 H]AGPP or [^3 H]FPP and 5 μM wild-type p21^Ha-ras. After incubation for 30 min at 37° C., the amount of [^3 H]prenyl transferred to p21^Ha-ras was determined as described under "Experimental Procedures". Each value is the average of duplicate incubations and is representative of five separate experiments.
# as §1
# The observed inhibition kinetics could be a manifestation of the ability of AGPP to act as an alternative substrate for FTase. To evaluate the potential of AGPP to serve as a substrate of FTase, [^3 H]-AGPP was prepared by a similar route as described above, incorporating tritium with a specific activity of 17 Ci/mmol (synthesis to be reported elsewhere). […] The incorporated radioactivity was detected as a band of the expected molecular weight of farnesylated p21^H-ras on SDS-polyacrylamide gels (FIG. 4A, inset). […] The concentration of [^3 H]AGPP that gave half-maximal reaction velocity was approximately 0.5 μM (FIG. 4B).
# FIG. 5 depicts transfer of unnatural anilinogeranyl lipid from [^3 H]AGPP and transfer of farnesyl lipid from [^3 H]FPP to H-Ras by FTase. Farnesyltransferase (10 ng) was incubated in a final volume of 25 μl in the presence of 1.0 μM [^3 H]AGPP or [^3 H]FPP and 5 μM wild-type H-Ras. After incubation for 30 min. at 37° C., the amount of [^3 H]prenyl transferred to H-Ras was determined by ethanol-HCl precipitation and scintillation counting. Each value is the average of duplicate incubations and is representative of five separate experiments.
smiles,measurement,setting,value
"C/C(=C\COP(=O)(O)OP(=O)(O)O)CC/C=C(\C)CNc1ccccc1 [AGPP, (E,E)-8-Aniline-3,7-dimethyl-2,6-octadiene pyrophosphate]",IC50,"[1]; 0.6 μM [^3 H]FPP, 5 μM H-Ras, 37° C., 15 min",600 nM
same,mechanism of FTase inhibition with respect to Ha-Ras protein,"[1]; constant FPP, various Ras",noncompetitive inhibitor with respect to Ha-Ras protein; also recorded: did not apparently affect the Km value for the substrate protein Ha-Ras
same,mechanism of FTase inhibition with respect to FPP,"[1]; double reciprocal plots, various [^3 H]FPP, constant Ras",competitive inhibitor of FTase with respect to FPP; also recorded: changed the Km value for FPP but does not alter the Vmax; also recorded: potent competitive inhibitor
same,reversibility of FTase inhibition,[1]; gel filtration after preincubation with 50 μM AGPP,reversible
same,"inhibition of FTase, in words","[1]; in vitro, unlabeled compound",competed at essentially the same concentrations
same,"transfer to p21^H-ras by FTase, in words",[2]; 37° C.,transferred efficiently
same,"transfer to p21^H-ras by FTase, in words","[2]; 37° C., listed as [^3 H]-AGPP",kinetics of transfer are identical to those of FPP
same,"transfer to p21^H-ras by FTase, in words","[2]; 37° C., listed as [^3 H]AGPP",time dependent fashion; also recorded: transferred appropriately to p21^H-Ras by FTase
same,transfer to p21^H-ras lacking the CVLS motif,[2]; recombinant p21^H-ras with CVLS removed,eliminated the incorporation of tritium into the protein
same,concentration that gave half-maximal reaction velocity,"[2]; transfer to p21^H-ras, 37° C., 30 min",approximately 0.5 μM
